# In US10085973B2, “Pharmaceutical composition containing a compound having a thrombopoietin receptor agonistic activity” (Shionogi & Co., Ltd., priority 2012, dated 2018):
# Read-outs that look alike come from different tables or passages of the source.
# Tests used:
# [1] = test system: patients with thrombocytopenia caused by chronic liver disease; experiment: Example 2 Test Example 2: placebo-controlled repeated oral administration before percutaneous liver ablation with discontinuation criteria; assay type: in vivo, human
# From the text: To patients with thrombocytopenia caused by chronic liver disease, lusutrombopag as a pretreatment of percutaneous liver ablation was orally administered repeatedly for 7 days while applying the discontinuation criteria designed in Example 1 and profile of the platelet count was studied. In the present Example, the term “ablation” refers to radiofrequency ablation.
# Patients with thrombocytopenia caused by chronic liver disease who are scheduled to undergo percutaneous liver ablation.
# Patients who meet the following inclusion criteria are included. • 1) Age: 20 years of age or older (at the time of consent); • 2) Patients who themselves can give a consent in writing; • 3) Patients with thrombocytopenia caused by chronic liver disease; • 4) Patients who are scheduled to undergo percutaneous liver ablation for primary liver cancer; • 5) Patients having a platelet count which is less than 5×10^4/μL at the time of screening; • 6) Patients whose ECOG* Performance Status of Grade is 0 to 1; and • 7) Patients who can practice contraception from entry to the end of observation. (Exclusion Criteria)
# Patients who meet the following criteria are excluded. • 1) Patients who underwent splenectomy; • 2) Patients who have a complication presenting thrombocytopenia; • 3) Patients who underwent liver transplant; • 4) Degree of hepatic disorder classified as the Child-Pugh class of C; • 5) Hepatic encephalopathy uncontrolled by medicaments; • 6) Ascites uncontrolled by medicaments; • 7) Patients who have a complication of malignant tumor other than primary liver cancer; • 8) Patients who have a complication or a history of thrombosis or thrombotic disease; • 9) Patients who have absence of hepatopetal blood flow in the portal vein; • 10) Patients who have a complication or a history of disease with hemorrhage risk; • 11) Patients who received a therapeutic agent that affects a platelet count or underwent a therapy that affects a platelet count within 90 days before registry; • 12) Patients who received a blood product (excluding erythrocyte product) within 14 days before registry; or • 13) Patients who previously received a TPO receptor agonist. (Drugs which are Prohibited, Limited or Allowed for Coadministration During the Trial)
# In each allocated group, lusutrombopag is orally administered repeatedly once daily for 7 days. After patients are monitored on day 8, they undergo percutaneous liver ablation before day 14 from initiation of administration. They are monitored until about day 30 after initiation of administration.
# Lusutrombopag is orally administered repeatedly once daily for 7 days. On day 1, the drug is administered at the time of visit. On day 5 to day 7, the drug shall be administered after checking the platelet count measured on the same day. Administration of lusutrombopag shall be discontinued when the platelet count reaches to the following criteria (administration discontinuating criteria) in a clinical examination after administration of the investigational drug.
# Administration discontinuating criteria: when the platelet count has increased by 2×10^4/μL or more from the platelet count before initiation of administration and the platelet count has reached to 5×10^4/μL or higher.
# As the platelet count before initiation of administration, the platelet count determined within 7 days before initiation of administration was used.
# Daily dose was any one of 2.0, 3.0 and 4.0 mg of lusutrombopag.
# Proportion of patients who have a platelet count on day 8 after initiation of administration that increased by 2×10^4/μL or more from a platelet count before initiation of administration and reached to 5×10^4/μL or higher. […]
# [2] = Estimated PK model parameters for chronic liver disease patients (for Monte-Carlo simulation); design: species or system human
# From the text: Based on the PK/PD model in healthy adults as described in (Test Example 1), model parameters in chronic liver disease patients were estimated on the basis of the following assumptions.
# PK Parameters (CL, V2/F, Q2/F, V3/F, Q3/F, V4/F, Q4/F, ktr and ka):
# Therefore, as PK parameters those from healthy adults were used. As parameters ka and ktr, estimated values under the conditions of postprandial and tablets were used in line with clinical usage.
# platelet count = experiment: PD model from phase 1 trial in healthy male adults (profile of platelet count); assay type: in vivo, human; conditions: for EC50: Homo sapiens, Platelet, read-out: EC50 (sigmoid Emax model), mean
# From the text: Using the plasma concentration of the drug and the platelet count data of 54 cases obtained in phase 1 trial carried out in Japan to healthy male adults, a PK/PD model was constructed that can describe pharmacokinetics and a profile of a platelet count. The PK model describing pharmacokinetics was a three-compartment model including three compartments in the absorption process in order to explain the delay in absorption. The PD model describing the relation between the plasma concentration and the profile of platelets counts was a model including five compartments in order to explain the maturation process of platelets. […] We assumed that the distributions of respective model parameters and the distributions of the residual errors of the models follow a log-normal distribution. Parameters were estimated by using the first order conditional estimation method with interaction in a software NONMEM (version VI, level 2.0).
smiles,measurement,setting,value
"CCCCCCO[C@@H](C)c1cccc(-c2csc(NC(=O)c3cc(Cl)c(/C=C(\C)C(=O)O)c(Cl)c3)n2)c1OC [lusutrombopag, (E)-3-[2,6-dichloro-4-[4-[3-[(S)-1-hexyloxyethyl]-2-methoxyphenyl]-thiazol-2-ylcarbamoyl]-phenyl]-2-methylacrylic acid]",Endpoint 2: Number of patients who had a platelet count during the trial that increased by 2 × 10^4/μL or more from the count before initiation of administration and reached to 5 × 10^4/μL or higher,"[1]; 2.0 mg once daily, n = 15",10
same,Number of patients to whom administration was discontinued according to the administration discontinuating criteria,"[1]; 2.0 mg once daily, n = 15",3
same,Number of patients who received platelet transfusion,"[1]; 2.0 mg once daily, n = 15",3
same,Endpoint 2: Number of patients who had a platelet count during the trial that increased by 2 × 10^4/μL or more from the count before initiation of administration and reached to 5 × 10^4/μL or higher,"[1]; 3.0 mg once daily, n = 16",11
same,Number of patients to whom administration was discontinued according to the administration discontinuating criteria,"[1]; 3.0 mg once daily, n = 16",3
same,Number of patients who received platelet transfusion,"[1]; 3.0 mg once daily, n = 16",3
same,Endpoint 2: Number of patients who had a platelet count during the trial that increased by 2 × 10^4/μL or more from the count before initiation of administration and reached to 5 × 10^4/μL or higher,"[1]; 4.0 mg once daily, n = 15",12
same,Number of patients to whom administration was discontinued according to the administration discontinuating criteria,"[1]; 4.0 mg once daily, n = 15",5
same,Number of patients who received platelet transfusion,"[1]; 4.0 mg once daily, n = 15",4
same,efficacy at each dose,"[1]; all doses (2.0, 3.0 and 4.0 mg)",all doses showed the efficacy
same,patients who had a platelet count of higher than 20×10^4/μL during the observation period,"[1]; daily dose 2.0, 3.0 and 4.0 mg",None
same,"Q3/F, mean",[2],0.946 L/h
same,"Q4/F, mean",[2],0.0262 L/h
same,"V3/F, mean",[2],6.28 L
same,"V4/F, mean",[2],2.71 L
same,"ka, mean",[2]; postprandial and tablets,0.854 h⁻¹
same,"ktr, mean",[2]; postprandial and tablets,1.38 h⁻¹
same,"CL, mean",[2]; value of healthy adults used,0.776 L/h
same,"V2/F, mean",[2]; × (1 + (BW − 63) × 0.0172),15.9 L
same,"Emax (sigmoid Emax model), mean",platelet count,3.52
same,"kdeg (elimination rate constant from the platelet compartment), mean",platelet count,1.61e-06 s⁻¹
same,"km (inter-PD-compartmental transfer rate constant), mean",platelet count,0.0394 h⁻¹
same,"r (sigmoid Emax model), mean",platelet count,2.03
same,EC50,platelet count; 50 mg/dose,0.0216 mg/L
same,EC50,platelet count; <50 mg/dose,0.0647 mg/L
